Patent US12422427B2, “Compounds for treatment of diseases and methods of screening therefor” (Max-Planck-Gesellschaft zur Förderung der Wissenschaften …, priority 2018, dated 2025)
Entries after “also recorded” stand apart in the source; their conditions may differ.

How the values were obtained:
[1] = system: P bodies, Cajal bodies, PML bodies, DNA damage foci, nucleolus; assay: Effect on other non-membrane bound compartments in HeLa GFP marker lines; format: cell-based
Method: FIG. 4A) Images of HeLa cells expressing Protein GFP markers of other non-membrane bound compartments subject to 1 h treatment with 10 μM compound (or DMSO control). Where unclear, the position of nuclei is indicated with a dotted outline. […] FIG. 4B) Recruitment of FUS GFP to sites of UV laser-induced DNA damage in iPS cells after 1 h treatment with compound followed by 1 h arsenate stress.
Stress granules are one of several, similar, cytoplasmic RNA-containing liquid-like compartments. […] Several stress granule proteins also form nuclear bodies: nuclear paraspeckles, and foci at the sites of DNA damage. There are also many other nuclear liquid-like compartments. It was then asked whether lipoamide also affected these other bodies, using a panel of cell lines expressing GFP fusions. For this analysis, mitoxantrone was included as a representative of the heterotri-/tetracyclic compound class of hits (FIG. 1F). An overly-broad effect on liquid-like compartments would likely cause side-effects for a therapeutic.
The action of lipoamide is therefore specific to the signaling and/or physical chemistry driving stress granule formation, stress granule phase separation, and/or a specific signaling route. Stress granules normally form and dissolve rapidly in comparison to many other compartments.

[2] = target: T1, FUS low complexity domain (residues 1 to 163) (Homo sapiens, UniProt P35637); assay: 1H-15N HSQC NMR of FUS low complexity domain with compound; format: binding; details: 500 μM compound
T1 construct: untagged FUS low complexity domain (residues 1 to 163) expressed, purified and analysed; made in house
T1 sequence (P35637 1-163): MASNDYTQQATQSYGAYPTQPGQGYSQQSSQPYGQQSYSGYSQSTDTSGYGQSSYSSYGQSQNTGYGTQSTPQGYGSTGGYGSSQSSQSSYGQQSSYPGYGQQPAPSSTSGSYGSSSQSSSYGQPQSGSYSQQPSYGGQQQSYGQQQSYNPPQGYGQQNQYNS
Method: Finally, mechanistic detail was analyzed at the sub-molecular level by using NMR of the FUS prion-like N-terminal LCD to determine putative sites of lipoamide interaction. The LCD is able to phase separate to form condensates in vitro and the individual residues can be resolved and assigned in a ^1H-^15N heteronuclear single quantum coherence spectrum. ^1H-^15N analyses reveal a change in environment of individual residues as indicated by their corresponding chemical shifts. The magnitude of chemical shift changes were compared with and without both lipoamide or mitoxantrone. […] This leaves several possibilities: Perhaps lipoamide interacts with the FUS LCD only when phase separated, potentially reducing viscosity, or interacts with the condensate phase boundary, perhaps increasing surface tension. Such interactions may reduce formation or expansion of aggregated forms of FUS involved in condensate hardening and reduced liquidity.
For analysis of compound interaction with FUS untagged FUS low complexity domain (residues 1 to 163) expressed, purified and analysed using ^1H-^15N heteronuclear single quantum coherence NMR and sample conditions previously described^14 in the presence of 500 μM compound or equivalent DMSO solvent control (1%).

[3] = target: T2, FUS GFP (Homo sapiens, UniProt P35637); assay: In vitro purified FUS GFP droplet screen; format: biochemical; details: low salt conditions, 1 mM DTT, up to 100 μM compound
T2 construct: His MBP (N, cleaved yes); made in house; host or cells: baculovirus/insect cell expression system
T2 sequence (P35637 1-526): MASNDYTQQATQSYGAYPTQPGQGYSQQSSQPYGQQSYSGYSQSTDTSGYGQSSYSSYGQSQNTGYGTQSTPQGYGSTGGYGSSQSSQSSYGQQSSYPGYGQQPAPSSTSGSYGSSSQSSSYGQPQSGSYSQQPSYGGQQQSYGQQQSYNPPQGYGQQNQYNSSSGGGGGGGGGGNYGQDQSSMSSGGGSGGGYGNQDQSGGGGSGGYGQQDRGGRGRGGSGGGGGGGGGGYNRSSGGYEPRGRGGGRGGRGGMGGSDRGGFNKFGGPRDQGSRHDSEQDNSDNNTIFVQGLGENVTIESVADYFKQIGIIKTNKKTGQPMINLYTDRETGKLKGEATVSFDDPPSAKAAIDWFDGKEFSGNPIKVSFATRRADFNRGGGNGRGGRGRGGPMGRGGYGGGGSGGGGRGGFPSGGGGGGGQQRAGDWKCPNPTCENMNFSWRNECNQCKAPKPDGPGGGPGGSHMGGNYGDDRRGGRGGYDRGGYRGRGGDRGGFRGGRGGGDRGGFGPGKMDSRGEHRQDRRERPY
Method: Compounds that can directly interact with FUS were of primary interest, therefore the inventors performed a follow up screen for action of compounds on FUS droplet formation in vitro (FIG. 1D). […] Hits were identified by the effect on number of FUS droplets formed and the partition of FUS into the droplets formed under low salt conditions in vitro in the presence of 1 mM DTT to mimic the reducing intracellular environment (FIG. 1E).
The effect of compounds on FUS GFP droplets in vitro was assessed in 384 well plate format. The compound volume (in DMSO) necessary for 1, 3, 10, 30 or 100 μM final concentration were added by acoustic dispensing (Labcyte Echo 550) to 96 well plate wells containing 3 μl FUS GFP diluted in 50 mM Tris. HCl pH 7.4, 1 mM DTT (for low salt assays). Final DMSO concentration was 0.01 to 1%. Using a Freedom Evo 200 liquid handling workstation (TECAN) the FUS GFP/compound mixture was diluted in 7 μl assay buffer containing 50 mM Tris. HCl pH 7.4, 1 mM DTT, 50 mM KCl and 0.7 μM FUS GFP. Compound/FUS GFP and assay buffer were mixed by a standardised pipetting procedure then split to four wells in clear bottom 384 well plates then immediately imaged using a CellVoyager CV7000 automated spinning disc confocal microscope (as above). […] Droplet number and FUS GFP partition into droplets were analysed with a fixed intensity threshold using ImageJ.

NC(=O)CCCCC1CCSS1 (racemic) [lipoamide, 5-(1,2-dithiolan-3-yl)pentanamide]
disruption of P bodies (DCP1A), Cajal bodies (COIL), DNA damage foci (TRP53BP1), nucleolus (NCB1) ([1]; 1 h treatment with 10 μM compound): does not disrupt | localization of P-body, PML body and DNA damage focus proteins ([1]; conditions that would dissolve stress granules): did not affect the localization | chemical shift changes of FUS LCD residues [2]: no single, clear sites of interaction | FUS GFP droplet number, partition into droplets and droplet size [3]: increase condensate droplet number, partition into droplets and the droplets were larger; also recorded: larger drops
